Source: PubChem BioAssay AID1845205 (Molecular Pharmacology Branch, DTP, NCI, 2023)
Where “and” joins values, the source holds several entries; their conditions need not be identical. Equal values may be shown once. Calls of active or inactive are those of the source. Rule for the calls: active = viability on the fitted dose curve at most 10% of control; inactive = the rest.

System: MPNST multicellular tumor spheroids, viability % test/control
Assay: Anticancer human tumor MPNST cell line growth inhibition;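 for IC50: spheroids exposed to agents for seven days after three days of growth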;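 for viability, T/C: luminescence signal used as surrogate for viable cell amount; spheroids exposed to agents for seven days after three days of growth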
Details: for viability, T/C: stronger effect = lower value; for IC50: curve of first compound
Procedure, shortened: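 Complex tumor spheroids combined malignant cells with endothelial cells and mesenchymal stem cells. DNA-damaging drugs and DNA repair inhibitors were tested alone and in combination, at half-log dilutions down from clinical Cmax (top 10 microM if Cmax unknown), 0.25% DMSO final.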

[1] = second compound 0.003 µM, first compound 0.0316 µM
[2] = second compound 0.003 µM, first compound 0.1 µM
[3] = second compound 0.003 µM, first compound 0.316 µM
[4] = second compound 0.003 µM, first compound 1 µM
[5] = second compound 0.003 µM, first compound 3.16 µM
[6] = second compound 0.003 µM, first compound 10 µM

`COc1ccc([C@@H](O)c2cc(-c3ncnc4cc(N5CCOCC5)ccc34)c(F)cc2Cl)nn1` was tested, and the viability, T/C (compound 0.0316 µM) was 33.1% and 109% and 92.9%, the viability, T/C (compound 0.1 µM) was 26% and 94% and 75.6% and the viability, T/C (compound 0.316 µM) was 21.6% and 87.5% and 78.7%. For the same molecule, the outcome (compound 1 µM) was “inactive” and the viability, T/C (compound 1 µM) was 14.7% and 50.9%.

`COc1cc(C)[nH]c(=O)c1CN1CCc2c(Cl)cc(C(OC)C3COC3)c(Cl)c2C1=O` (stereo not given) + CC[C@@]1(O)C(=O)OCc2c1cc1n(c2=O)Cc2cc3c(CN(C)C)c(O)ccc3nc2-1 gave an IC50 (second compound 0.003 µM) of over 10 µM, an IC50 (second compound 0.00949 µM) of over 10 µM and an IC50 (second compound 0.03 µM) of under 0.0316 µM. For the same molecule, the IC50 (second compound 0.0949 µM) was under 0.0316 µM, the IC50 (second compound 0.3 µM) was under 0.0316 µM and the viability, T/C [1] was 92.6%. For the same molecule, the viability, T/C [2] was 95.7%, the viability, T/C [3] was 91.3% and the viability, T/C [4] was 103%. For the same molecule, the viability, T/C [5] was 93.6%, the viability, T/C [6] was 95.5% and the viability, T/C (second compound 0.00949 µM, first compound 0.0316 µM) was 96.6%. For the same molecule, the viability, T/C (second compound 0.00949 µM, first compound 0.1 µM) was 88.5%, the viability, T/C (second compound 0.00949 µM, first compound 0.316 µM) was 96.4% and the viability, T/C (second compound 0.00949 µM, first compound 1 µM) was 78%. For the same molecule, the viability, T/C (second compound 0.00949 µM, first compound 3.16 µM) was 77.9%, the viability, T/C (second compound 0.00949 µM, first compound 10 µM) was 86.3% and the viability, T/C (second compound 0.03 µM, first compound 0.0316 µM) was 46.4%. It also gave a viability, T/C (second compound 0.03 µM, first compound 0.1 µM) of 49.5%, a viability, T/C (second compound 0.03 µM, first compound 0.316 µM) of 51.5% and a viability, T/C (second compound 0.03 µM, first compound 1 µM) of 49.2%. For the same molecule, the viability, T/C (second compound 0.03 µM, first compound 3.16 µM) was 54.2%, the viability, T/C (second compound 0.03 µM, first compound 10 µM) was 51.6% and the viability, T/C (second compound 0.0949 µM, first compound 0.0316 µM) was 48.5%. It also gave a viability, T/C (second compound 0.0949 µM, first compound 0.1 µM) of 41.7%, a viability, T/C (second compound 0.0949 µM, first compound 0.316 µM) of 43.7% and a viability, T/C (second compound 0.0949 µM, first compound 1 µM) of 47.7%. It also gave a viability, T/C (second compound 0.0949 µM, first compound 3.16 µM) of 45.7%, a viability, T/C (second compound 0.0949 µM, first compound 10 µM) of 46.7% and a viability, T/C (second compound 0.3 µM, first compound 0.0316 µM) of 37%. For the same molecule, the viability, T/C (second compound 0.3 µM, first compound 0.1 µM) was 39.2%, the viability, T/C (second compound 0.3 µM, first compound 0.316 µM) was 39.2% and the viability, T/C (second compound 0.3 µM, first compound 1 µM) was 37.3%. The viability, T/C (second compound 0.3 µM, first compound 3.16 µM) was 37.7% and the viability, T/C (second compound 0.3 µM, first compound 10 µM) was 39.5%.

With `CC(C)n1c(=O)n(C)c2cnc3cc(F)c(-c4ccc(OCCCN5CCCCC5)nc4)cc3c21` + Cn1nnc2c(C(N)=O)ncn2c1=O the IC50 (second compound 1 µM) was over 10 µM, the IC50 (second compound 3.16 µM) was over 10 µM and the IC50 (second compound 10 µM) was over 10 µM. For the same molecule, the IC50 (second compound 31.6 µM) was over 10 µM, the IC50 (second compound 100 µM) was over 10 µM and the viability, T/C (second compound 1 µM, first compound 0.0316 µM) was 87.4%. The viability, T/C (second compound 1 µM, first compound 0.1 µM) was 83.7%, the viability, T/C (second compound 1 µM, first compound 0.316 µM) was 82.6% and the viability, T/C (second compound 1 µM, first compound 1 µM) was 77.9%. For the same molecule, the viability, T/C (second compound 1 µM, first compound 3.16 µM) was 79.4%, the viability, T/C (second compound 1 µM, first compound 10 µM) was 61.9% and the viability, T/C (second compound 3.16 µM, first compound 0.0316 µM) was 84.6%. For the same molecule, the viability, T/C (second compound 3.16 µM, first compound 0.1 µM) was 82.9%, the viability, T/C (second compound 3.16 µM, first compound 0.316 µM) was 92.5% and the viability, T/C (second compound 3.16 µM, first compound 1 µM) was 99%. For the same molecule, the viability, T/C (second compound 3.16 µM, first compound 3.16 µM) was 84.9%, the viability, T/C (second compound 3.16 µM, first compound 10 µM) was 65.2% and the viability, T/C (second compound 10 µM, first compound 0.0316 µM) was 76.6%. It also gave a viability, T/C (second compound 10 µM, first compound 0.1 µM) of 92.4%, a viability, T/C (second compound 10 µM, first compound 0.316 µM) of 82.4% and a viability, T/C (second compound 10 µM, first compound 1 µM) of 74.8%. It also gave a viability, T/C (second compound 10 µM, first compound 3.16 µM) of 77.7%, a viability, T/C (second compound 10 µM, first compound 10 µM) of 72.1% and a viability, T/C (second compound 31.6 µM, first compound 0.0316 µM) of 88.2%. For the same molecule, the viability, T/C (second compound 31.6 µM, first compound 0.1 µM) was 89%, the viability, T/C (second compound 31.6 µM, first compound 0.316 µM) was 68.6% and the viability, T/C (second compound 31.6 µM, first compound 1 µM) was 81.8%. It also gave a viability, T/C (second compound 31.6 µM, first compound 3.16 µM) of 83.7%, a viability, T/C (second compound 31.6 µM, first compound 10 µM) of 68.8% and a viability, T/C (second compound 100 µM, first compound 0.0316 µM) of 76.8%. It also gave a viability, T/C (second compound 100 µM, first compound 0.1 µM) of 71.8%, a viability, T/C (second compound 100 µM, first compound 0.316 µM) of 74.2% and a viability, T/C (second compound 100 µM, first compound 1 µM) of 71.2%. It also gave a viability, T/C (second compound 100 µM, first compound 3.16 µM) of 91% and a viability, T/C (second compound 100 µM, first compound 10 µM) of 67.2%.

Work on `CC(C)n1c(=O)n(C)c2cnc3cc(F)c(-c4ccc(OCCCN5CCCCC5)nc4)cc3c21` + COc1cc2c(cc1O)CCNC21CSC2c3c(OC(C)=O)c(C)c4c(c3C(COC1=O)N1C(O)C3Cc5cc(C)c(OC)c(O)c5C(C21)N3C)OCO4 yielded an IC50 (second compound 30 pM) of over 10 µM, an IC50 (second compound 94.9 pM) of over 10 µM and an IC50 (second compound 0.0003 µM) of over 10 µM. It also gave an IC50 (second compound 0.000949 µM) of under 0.0316 µM, an IC50 (second compound 0.003 µM) of under 0.0316 µM and a viability, T/C (second compound 30 pM, first compound 0.0316 µM) of 94.6%. For the same molecule, the viability, T/C (second compound 30 pM, first compound 0.1 µM) was 76.6%, the viability, T/C (second compound 30 pM, first compound 0.316 µM) was 79.8% and the viability, T/C (second compound 30 pM, first compound 1 µM) was 135%. The viability, T/C (second compound 30 pM, first compound 3.16 µM) was 110%, the viability, T/C (second compound 30 pM, first compound 10 µM) was 72.2% and the viability, T/C (second compound 94.9 pM, first compound 0.0316 µM) was 72.3%. It also gave a viability, T/C (second compound 94.9 pM, first compound 0.1 µM) of 68.9%, a viability, T/C (second compound 94.9 pM, first compound 0.316 µM) of 79.3% and a viability, T/C (second compound 94.9 pM, first compound 1 µM) of 64.6%. It also gave a viability, T/C (second compound 94.9 pM, first compound 3.16 µM) of 63.5%, a viability, T/C (second compound 94.9 pM, first compound 10 µM) of 59.3% and a viability, T/C (second compound 0.0003 µM, first compound 0.0316 µM) of 55.8%. The viability, T/C (second compound 0.0003 µM, first compound 0.1 µM) was 47.3%, the viability, T/C (second compound 0.0003 µM, first compound 0.316 µM) was 61.1% and the viability, T/C (second compound 0.0003 µM, first compound 1 µM) was 67.5%. For the same molecule, the viability, T/C (second compound 0.0003 µM, first compound 3.16 µM) was 52.5%, the viability, T/C (second compound 0.0003 µM, first compound 10 µM) was 40.8% and the viability, T/C (second compound 0.000949 µM, first compound 0.0316 µM) was 47.2%. The viability, T/C (second compound 0.000949 µM, first compound 0.1 µM) was 46.6%, the viability, T/C (second compound 0.000949 µM, first compound 0.316 µM) was 45.5% and the viability, T/C (second compound 0.000949 µM, first compound 1 µM) was 48.1%. For the same molecule, the viability, T/C (second compound 0.000949 µM, first compound 3.16 µM) was 45.2%, the viability, T/C (second compound 0.000949 µM, first compound 10 µM) was 37.1% and the viability, T/C [1] was 13.8%. For the same molecule, the viability, T/C [2] was 13.6%, the viability, T/C [3] was 11.6% and the viability, T/C [4] was 10.3%. For the same molecule, the viability, T/C [5] was 10% and the viability, T/C [6] was 6.09%.
